{"source": "paper PMC11365428", "about": "(The Journal of Biological Chemistry, 2024)", "key": {"[1]": {"biological_target": "T1, apTKRPR-B (Aplysia californica, UniProt A0AAU7STS1)", "T1 sequence (A0AAU7STS1 1-447)": "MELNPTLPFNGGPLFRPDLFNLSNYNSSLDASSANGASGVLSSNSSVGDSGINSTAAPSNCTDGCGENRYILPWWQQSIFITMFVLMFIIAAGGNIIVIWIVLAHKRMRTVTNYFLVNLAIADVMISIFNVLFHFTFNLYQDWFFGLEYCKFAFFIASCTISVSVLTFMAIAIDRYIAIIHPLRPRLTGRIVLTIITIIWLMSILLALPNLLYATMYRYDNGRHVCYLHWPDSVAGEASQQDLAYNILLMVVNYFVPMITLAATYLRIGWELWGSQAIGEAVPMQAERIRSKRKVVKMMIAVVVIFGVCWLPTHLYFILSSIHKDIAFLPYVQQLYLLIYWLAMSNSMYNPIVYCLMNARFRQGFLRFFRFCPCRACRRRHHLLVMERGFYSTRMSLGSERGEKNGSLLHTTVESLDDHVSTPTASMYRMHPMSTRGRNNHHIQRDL", "assay": "Receptor desensitization assay, protocol 2 (repeated agonist exposure), apTKRPR-B", "format": "cell-based", "conditions": "10 μM pretreatment 2-60 min without LiCl, wash, second 10 μM application for 15 min with LiCl; % of control; n = 5", "method": "Therefore, we adopted two protocols to study the desensitization of apTKRPRs. The protocols were performed using a procedure modified from previous work ([87], [88], [89]).\nProtocol 2 ([89]): To simulate repeated stimulation with an agonist, we examined agonist-induced desensitization by quantifying the accumulation level of IP1 after two applications of the agonist/ligand. Because the IP1 accumulation assay involves using LiCl to stop the degradation of IP1, in this protocol, LiCl was applied only during the second application of the agonist. Specifically, to elicit desensitization, cells were first exposed to 10 μM apTKRP-2b in the absence of LiCl for various pretreatment durations (pretreatment stage/phase Ⅰ). After this agonist exposure, cells were washed (three times) rapidly with PBS (phase Ⅱ), and the wash was consistently performed in each experiment. Responsiveness of the receptor was then assessed by measuring intracellular concentrations of IP1 accumulation in response to a second application of 10 μM apTKRP-2b for 15 min in the presence of LiCl (phase Ⅲ) (Fig. S11)."}, "[2]": {"biological_target": "apTKRPR-B 14A (Aplysia californica, UniProt A0AAU7STS1, S392A/S396A/S399A/S407A/S415A/S421A/S426A/S434A/T393A/T411A/T412A/T422A/T424A/T435A)", "sequence (A0AAU7STS1 entry or part of it with the stated changes)": "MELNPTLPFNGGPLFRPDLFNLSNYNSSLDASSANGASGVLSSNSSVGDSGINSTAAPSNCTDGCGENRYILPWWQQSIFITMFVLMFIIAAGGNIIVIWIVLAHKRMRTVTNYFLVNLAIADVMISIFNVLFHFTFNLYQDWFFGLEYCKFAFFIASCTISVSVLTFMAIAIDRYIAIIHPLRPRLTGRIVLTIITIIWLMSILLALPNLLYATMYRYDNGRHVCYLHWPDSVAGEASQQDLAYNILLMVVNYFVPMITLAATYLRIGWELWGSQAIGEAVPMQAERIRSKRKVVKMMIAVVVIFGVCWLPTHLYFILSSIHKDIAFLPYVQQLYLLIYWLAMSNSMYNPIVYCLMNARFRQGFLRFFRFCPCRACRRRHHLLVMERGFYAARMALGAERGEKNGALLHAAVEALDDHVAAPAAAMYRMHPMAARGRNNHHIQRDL", "assay": "IP1 accumulation assay, Ser/Thr-to-Ala mutant apTKRPR-B 14A", "format": "cell-based", "method": "To express putative Aplysia receptors transiently in CHO-K1 cells, the cDNAs were subcloned into the pcDNA3.1(+) or pcDNA3.1(+)-FLAG (for ELISA experiments only, see “Cell surface expression analysis by ELISA” section) expression vector. On the day before transfection, the CHO-K1 cells were passaged into 60 mm diameter tissue culture–treated dishes, and the transfection experiments were performed when the cells were grown to 70 to 90% confluence. CHO-K1 cells were transfected with the cDNA plasmid constructs using Turbofect Transfection reagent (Thermo Fisher Scientific, R0531), following the manufacturer’s instructions. In brief, 4 μg of the putative receptor plasmids [in pcDNA3.1(+) or pcDNA3.1(+)-FLAG] were mixed with 400 μl of Opti-MEM (Gibco, 11058021), followed by the addition of 15 μl of TurboFect Transfection reagent and incubated at room temperature for 15 min. […]\nThe next day, transfected cells were trypsinized and reseeded in an opaque white 96-well half-area (Corning, 3688) or 384-well tissue culture–treated plates (Corning, 3570) at a density of 20,000 cells/well in F-12K and 10% FBS and incubated at 37 °C in a humidified incubator containing 5% CO2 overnight. On the third day, the activation of the putative receptors was detected by monitoring intracellular IP1 concentration using an IP-One Gq kit (Cisbio, 62IPAPEB) in Tecan Spark. […]"}}, "note": "Non-standard residues stand in square brackets, D forms with d. Residues, ends and D or L forms follow the SMILES beside them. pGlu = O=C1CC[C@@H](C(=O)O)N1", "data": [{"compound": "CC(C)C[C@H](NC(=O)[C@H](Cc1c[nH]cn1)NC(=O)[C@@H]1CCCN1C(=O)[C@@H]1CCC(=O)N1)C(=O)NCC(=O)N[C@@H](Cc1ccccc1)C(=O)N[C@@H](Cc1c[nH]cn1)C(=O)NCC(=O)N[C@@H](CO)C(=O)N[C@@H](CCCNC(=N)N)C(N)=O", "note": "[apTKRP-2b] ([pGlu]PHLGFHGSR-NH2)", "values": [{"measurement": "IP1 accumulation after pretreatment, apTKRPR-B (protocol 2)", "setting": "[1]", "value": "IP1 accumulation was less after the second exposure"}, {"measurement": "EC50", "setting": "[2]", "value": 24.5, "unit": "nM"}]}]}
